PubChem BioAssay AID1259407 (Chemical Carcinogenesis Research Information System (CCRIS), 2018)
Active and inactive are the calls of the source. No rule for the calls is given here.

Tested on: CCRIS mutagenicity, Ames/micronucleus/aberration tests
Test: CCRIS mutagenicity studies
[1] = Test System: AMES SALMONELLA TYPHIMURIUM, Strain/Indicator: TA98, Metabolic Activation: NONE, Method: PREINCUBATION
[2] = Test System: AMES SALMONELLA TYPHIMURIUM, Strain/Indicator: TA100, Metabolic Activation: NONE, Method: PREINCUBATION

## O=C1c2c(O)cccc2Cc2cccc(O)c21
Test System: AMES SALMONELLA TYPHIMURIUM, Strain/Indicator: TA97, Metabolic Activation: HAMSTER, LIVER, S-9, AROCLOR 1254 (10%), Method: PREINCUBATION
  mutagenic call: inactive; negative
Test System: AMES SALMONELLA TYPHIMURIUM, Strain/Indicator: TA97, Metabolic Activation: HAMSTER, LIVER, S-9, AROCLOR 1254 (30%), Method: PREINCUBATION
  mutagenic call: inactive; negative
Test System: AMES SALMONELLA TYPHIMURIUM, Strain/Indicator: TA97, Metabolic Activation: NONE, Method: PREINCUBATION
  mutagenic call: inactive; negative
Test System: AMES SALMONELLA TYPHIMURIUM, Strain/Indicator: TA97, Metabolic Activation: RAT, LIVER, S-9, AROCLOR 1254 (10%), Method: PREINCUBATION
  mutagenic call: inactive; negative
Test System: AMES SALMONELLA TYPHIMURIUM, Strain/Indicator: TA97, Metabolic Activation: RAT, LIVER, S-9, AROCLOR 1254 (30%), Method: PREINCUBATION
  mutagenic call: inactive; negative
Test System: AMES SALMONELLA TYPHIMURIUM, Strain/Indicator: TA98, Metabolic Activation: HAMSTER, LIVER, S-9, AROCLOR 1254 (10%), Method: PREINCUBATION
  mutagenic call: inactive; negative
Test System: AMES SALMONELLA TYPHIMURIUM, Strain/Indicator: TA98, Metabolic Activation: HAMSTER, LIVER, S-9, AROCLOR 1254 (30%), Method: PREINCUBATION
  mutagenic call: inactive; negative
[1]
  mutagenic call: inactive; negative
Test System: AMES SALMONELLA TYPHIMURIUM, Strain/Indicator: TA98, Metabolic Activation: RAT, LIVER, S-9, AROCLOR 1254 (10%), Method: PREINCUBATION
  mutagenic call: inactive; negative
Test System: AMES SALMONELLA TYPHIMURIUM, Strain/Indicator: TA98, Metabolic Activation: RAT, LIVER, S-9, AROCLOR 1254 (30%), Method: PREINCUBATION
  mutagenic call: inactive; negative
Test System: AMES SALMONELLA TYPHIMURIUM, Strain/Indicator: TA100, Metabolic Activation: FISH, LIVER, S-9, 3-METHYLCHOLANTHRENE, Method: STANDARD PLATE
  mutagenic call: inactive; negative
Test System: AMES SALMONELLA TYPHIMURIUM, Strain/Indicator: TA100, Metabolic Activation: HAMSTER, LIVER, S-9, AROCLOR 1254 (10%), Method: PREINCUBATION
  mutagenic call: inactive; negative
Test System: AMES SALMONELLA TYPHIMURIUM, Strain/Indicator: TA100, Metabolic Activation: HAMSTER, LIVER, S-9, AROCLOR 1254 (30%), Method: PREINCUBATION
  mutagenic call: inactive; negative
[2]
  mutagenic call: inactive; negative
Test System: AMES SALMONELLA TYPHIMURIUM, Strain/Indicator: TA100, Metabolic Activation: NONE, Method: STANDARD PLATE
  mutagenic call: inactive; negative
Test System: AMES SALMONELLA TYPHIMURIUM, Strain/Indicator: TA100, Metabolic Activation: RAT, LIVER, S-9, AROCLOR 1254 (10%), Method: PREINCUBATION
  mutagenic call: inactive; negative
Test System: AMES SALMONELLA TYPHIMURIUM, Strain/Indicator: TA100, Metabolic Activation: RAT, LIVER, S-9, AROCLOR 1254 (30%), Method: PREINCUBATION
  mutagenic call: inactive; negative
Test System: AMES SALMONELLA TYPHIMURIUM, Strain/Indicator: TA1535, Metabolic Activation: HAMSTER, LIVER, S-9, AROCLOR 1254 (10%), Method: PREINCUBATION
  mutagenic call: inactive; negative
Test System: AMES SALMONELLA TYPHIMURIUM, Strain/Indicator: TA1535, Metabolic Activation: HAMSTER, LIVER, S-9, AROCLOR 1254 (30%), Method: PREINCUBATION
  mutagenic call: inactive; negative
Test System: AMES SALMONELLA TYPHIMURIUM, Strain/Indicator: TA1535, Metabolic Activation: NONE, Method: PREINCUBATION
  mutagenic call: inactive; negative
Test System: AMES SALMONELLA TYPHIMURIUM, Strain/Indicator: TA1535, Metabolic Activation: RAT, LIVER, S-9, AROCLOR 1254 (10%), Method: PREINCUBATION
  mutagenic call: inactive; negative
Test System: AMES SALMONELLA TYPHIMURIUM, Strain/Indicator: TA1535, Metabolic Activation: RAT, LIVER, S-9, AROCLOR 1254 (30%), Method: PREINCUBATION
  mutagenic call: inactive; negative
Test System: AMES SALMONELLA TYPHIMURIUM, Strain/Indicator: TA1537, Metabolic Activation: NONE, Method: STANDARD PLATE
  mutagenic call: inactive; negative
Test System: AMES SALMONELLA TYPHIMURIUM, Strain/Indicator: TA1537, Metabolic Activation: RAT, LIVER, S-9, PHENOBARBITAL AND BETA-NAPHTHOFLAVONE, Method: STANDARD PLATE
  mutagenic call: active; positive
Test System: E. COLI, Strain/Indicator: WP2, Metabolic Activation: NONE, Method: STANDARD PLATE
  mutagenic call: inactive; negative
Test System: E. COLI, Strain/Indicator: WP2, Metabolic Activation: RAT, LIVER, S-9, AROCLOR 1254, Method: STANDARD PLATE
  mutagenic call: inactive; negative
Test System: E. COLI, Strain/Indicator: WP2 UVRA, Metabolic Activation: NONE, Method: STANDARD PLATE
  mutagenic call: inactive; negative
Test System: E. COLI, Strain/Indicator: WP2 UVRA, Metabolic Activation: RAT, LIVER, S-9, AROCLOR 1254, Method: STANDARD PLATE
  mutagenic call: inactive; negative

## Nc1ncnc2c1ncn2Cc1ccc([N+](=O)[O-])cc1
Test System: AMES SALMONELLA TYPHIMURIUM, Strain/Indicator: TA98(1,8-DNP), Metabolic Activation: NONE, Method: PREINCUBATION
  mutagenic call: inactive; negative
Test System: AMES SALMONELLA TYPHIMURIUM, Strain/Indicator: TA98(1,8-DNP), Metabolic Activation: RAT, LIVER, S-9, PCB, Method: PREINCUBATION
  mutagenic call: inactive; negative
Test System: AMES SALMONELLA TYPHIMURIUM, Strain/Indicator: TA98(NR), Metabolic Activation: NONE, Method: PREINCUBATION
  mutagenic call: inactive; negative
Test System: AMES SALMONELLA TYPHIMURIUM, Strain/Indicator: TA98(NR), Metabolic Activation: RAT, LIVER, S-9, PCB, Method: PREINCUBATION
  mutagenic call: inactive; negative
[1]
  mutagenic call: inactive; negative
Test System: AMES SALMONELLA TYPHIMURIUM, Strain/Indicator: TA98, Metabolic Activation: RAT, LIVER, S-9, PCB, Method: PREINCUBATION
  mutagenic call: inactive; negative
Test System: AMES SALMONELLA TYPHIMURIUM, Strain/Indicator: TA100(1,8-DNP), Metabolic Activation: NONE, Method: PREINCUBATION
  mutagenic call: inactive; negative
Test System: AMES SALMONELLA TYPHIMURIUM, Strain/Indicator: TA100(1,8-DNP), Metabolic Activation: RAT, LIVER, S-9, PCB, Method: PREINCUBATION
  mutagenic call: inactive; negative
Test System: AMES SALMONELLA TYPHIMURIUM, Strain/Indicator: TA100(NR), Metabolic Activation: NONE, Method: PREINCUBATION
  mutagenic call: inactive; negative
Test System: AMES SALMONELLA TYPHIMURIUM, Strain/Indicator: TA100(NR), Metabolic Activation: RAT, LIVER, S-9, PCB, Method: PREINCUBATION
  mutagenic call: inactive; negative
[2]
  mutagenic call: inactive; negative
Test System: AMES SALMONELLA TYPHIMURIUM, Strain/Indicator: TA100, Metabolic Activation: RAT, LIVER, S-9, PCB, Method: PREINCUBATION
  mutagenic call: inactive; negative
Test System: AMES SALMONELLA TYPHIMURIUM, Strain/Indicator: YG1020, Metabolic Activation: NONE, Method: PREINCUBATION
  mutagenic call: inactive; negative
Test System: AMES SALMONELLA TYPHIMURIUM, Strain/Indicator: YG1020, Metabolic Activation: RAT, LIVER, S-9, PCB, Method: PREINCUBATION
  mutagenic call: inactive; negative
Test System: AMES SALMONELLA TYPHIMURIUM, Strain/Indicator: YG1021, Metabolic Activation: NONE, Method: PREINCUBATION
  mutagenic call: active; positive
Test System: AMES SALMONELLA TYPHIMURIUM, Strain/Indicator: YG1024, Metabolic Activation: NONE, Method: PREINCUBATION
  mutagenic call: inactive; negative
Test System: AMES SALMONELLA TYPHIMURIUM, Strain/Indicator: YG1024, Metabolic Activation: RAT, LIVER, S-9, PCB, Method: PREINCUBATION
  mutagenic call: inactive; negative
Test System: AMES SALMONELLA TYPHIMURIUM, Strain/Indicator: YG1025, Metabolic Activation: NONE, Method: PREINCUBATION
  mutagenic call: inactive; negative
Test System: AMES SALMONELLA TYPHIMURIUM, Strain/Indicator: YG1025, Metabolic Activation: RAT, LIVER, S-9, PCB, Method: PREINCUBATION
  mutagenic call: inactive; negative
Test System: AMES SALMONELLA TYPHIMURIUM, Strain/Indicator: YG1026, Metabolic Activation: NONE, Method: PREINCUBATION
  mutagenic call: inactive; negative
Test System: AMES SALMONELLA TYPHIMURIUM, Strain/Indicator: YG1026, Metabolic Activation: RAT, LIVER, S-9, PCB, Method: PREINCUBATION
  mutagenic call: inactive; negative
Test System: AMES SALMONELLA TYPHIMURIUM, Strain/Indicator: YG1029, Metabolic Activation: NONE, Method: PREINCUBATION
  mutagenic call: inactive; negative
Test System: AMES SALMONELLA TYPHIMURIUM, Strain/Indicator: YG1029, Metabolic Activation: RAT, LIVER, S-9, PCB, Method: PREINCUBATION
  mutagenic call: inactive; negative
